Experiment [1] deals with NP-C mice. Kind of experiment: Niemann-Pick (NP-C) animal model: immunofluorescence, Rota-rod, Beam test. In kind it is in vivo, mouse. To be noted: 1 month-old NPC mice, 5 mg/kg daily for 4 weeks, subcutaneous. The source says: It has been approved for mouse experiments by the Kyungpook National University Institutional Animal Care and Use Committee (IACUC). A transgenic mouse line overexpressing APPswe (hAPP695swe) or PS1 (presenilin-1M146V) based on C57BL/6 mice (Charles River, UK) was used. [Hereinafter, APP mouse: mouse overexpressing APPswe, PS1 mouse: mouse overexpressing presenilin-1M146V; GlaxoSmithKline]. As an Alzheimer's (AD) animal model, SphK1 tg (SphK1 gene overexpressing mouse) was crossed with APP mice and APP/PS1 mice to prepare APP/PS1/SphK1 tg mice. Niemanpick (NP-C) animal model, Balb/C (Orient, Wild type), NPC mutant mouse lacking NPC1 gene (Provided by Riken, Japan, NP-C mice; less weight than normal mice of the same age, and severe motor function loss from 4 to 6 weeks of age, limb tremors and seizures appear, and lifespan is approximately 9 to 10 weeks. Is) was used. As an animal model for amyotrophic lateral sclerosis (ALS), a transgenic mouse (FUS) line overexpressing RUS R521C based on C57BL/6 mice (Charles River, UK) was used.
After fixing the cerebral and hippocampus of the mouse, anti-20G10 (mouse, 1:1000) against amyloid-β (Aβ) 42 and anti-G30 (rabbit, 1:1000) against Aβ 40, anti-MAP2 (chicken, 1:2000), anti-Synaptophysin (mouse, 1:100), anti-Synapsin1 (rabbit, 1:500), anti-PSD95 (mouse, 1:100), anti-Iba-1 (rabbit, 1:500), Anti-GFAP (rabbit, 1:500) was cultured together. The site was analyzed using a laser scanning confocal microscope or Olympus BX51 microscope equipped with Fluoview SV1000 imaging software (Olympus FV1000, Japan). Metamorph software (Molecular Devices) was used to quantify the percentage of the area of the stained area relative to the area of the total tissue.
To check the motor ability of each experimental group mice, a Rota-rod, Beam test, Tail suspension test, and Hanging wired test were performed. […] The endurance time of the experimental animal was measured in seconds, and the average value was recorded. […] In the Beam test, the time taken to move to the end point after placing the mouse at the start point of a 12 mm wide bar was measured. […]

The subject of experiment [2] is APP/PS1 neurons. Kind of experiment: neuroinflammatory resolution factor (SPMs) secretion in APP/PS1 neurons after COX2 acetylating agent treatment. Format: cell-based, mouse. The following applies: 10 nM; FIG. 8b. Here is the method:
A commercially available ELISA kit (Biosource) was used, and the hemispheres of mice were homogenized and placed in a buffer containing 0.02M guanidine to prepare a sample for Aβ ELISA. In order to measure the neuroinflammatory resolution factor, conditioned media (CM) was prepared after culturing neurons from mouse cerebrum. Thereafter, according to the manufacturer's manual, ELISA for Aβ and SPM was performed.
(§1) In order to measure the neuroinflammatory resolution factor, after culturing neurons from mouse cerebrum, CM was prepared by treatment with 10 nM N-acetyl sphingosine 1 phosphate (Toronto Research chemicals, C262710) and N-acetyl sphingosine (Sigma, 01912). For COX2 acetylation analysis, neurons were cultured from mouse cerebrum and then treated with 2 uCi [^14C]N-acetyl sphingosine (ARC, ARC1024). In addition, for in vivo experiments, 7-month-old APP/PS1 mice were injected with 5 mg/kg N-acetyl sphingosine (Sigma, 01912), 1 mg/kg FTY720 and 3 uM S1P daily for 4 weeks via intraperitoneal injection. 1 month-old NPC mice were injected with 5 mg/kg N-acetyl sphingosine (Sigma, 01912) and 2-month-old FUS mice with 30 mg/kg N-acetyl sphingosine (Sigma, 01912) daily for 4 weeks via subcutaneous injection.
First, in order to confirm whether the selected compounds promote the secretion of neuroinflammatory resolution factor in neurons, after treatment with N-acetyl sphingosine 1 phosphate or N-acetyl sphingosine in APP/PS1 neurons, the expression levels of neuroinflammatory resolution factor were confirmed. As a result, it was confirmed that the expression levels of LxA4 and RvE1 in neurons of APP/PS1 mice were recovered when treated with N-acetyl sphingosine 1 phosphate or N-acetyl sphingosine (FIG. 8b).

For experiment [3], the target named is T1, COX2 (Mus musculus, UniProt Q05769).
T1 construct: endogenous in cells; host or cells: primary neurons from mouse cerebrum
T1 sequence (Q05769 18-604): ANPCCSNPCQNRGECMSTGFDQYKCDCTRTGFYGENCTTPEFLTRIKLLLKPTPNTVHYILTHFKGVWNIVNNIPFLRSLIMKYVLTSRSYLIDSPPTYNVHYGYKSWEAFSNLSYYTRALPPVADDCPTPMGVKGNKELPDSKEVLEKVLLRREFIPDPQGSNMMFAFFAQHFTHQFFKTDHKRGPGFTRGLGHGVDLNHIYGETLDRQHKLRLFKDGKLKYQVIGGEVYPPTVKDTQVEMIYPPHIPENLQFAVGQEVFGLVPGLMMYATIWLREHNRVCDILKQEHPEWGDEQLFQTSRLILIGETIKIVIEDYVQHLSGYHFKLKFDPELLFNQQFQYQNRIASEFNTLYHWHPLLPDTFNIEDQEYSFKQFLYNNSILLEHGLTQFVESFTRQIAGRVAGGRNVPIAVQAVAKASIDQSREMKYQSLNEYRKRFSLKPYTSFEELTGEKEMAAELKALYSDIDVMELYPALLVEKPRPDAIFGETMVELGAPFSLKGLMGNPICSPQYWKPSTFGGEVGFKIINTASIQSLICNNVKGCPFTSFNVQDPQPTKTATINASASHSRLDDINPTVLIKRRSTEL
Kind of experiment: COX2 acetylation analysis with [14C]N-acetyl sphingosine. Format: cell-based. To be noted: 2 uCi [14C]N-acetyl sphingosine; FIG. 8c. The procedure:
as §1
Next, it was confirmed using N-acetyl sphingosine with C^14 attached to confirm whether the secretion of the neuroinflammatory resolution factor by the compounds was due to the increase in COX2 acetylation,
In addition, it was confirmed that serine 565 (S565) against the COX2 peptide 560-[…]-575 was acetylated in the presence of N-acetyl sphingosine (FIG. 8d).

The record followed here is patent US11899025B2, “Pharmaceutical composition for preventing or treating neurodegenerative diseases comprising COX2 acetylating agent as active ingredient” (KYUNGPOOK NATIONAL UNIVERSITY INDUSTRY-ACADEMIC COOPERATION …, priority 2018, dated 2024).

As to `CCCCCCCCCCCCC/C=C/[C@@H](O)[C@H](CO)NC(C)=O` [N-acetyl sphingosine], the “microglia (Iba1) in brain cortex vs NP-C mice” value in experiment [1] (FIG. 10a) is “remarkable decrease”. In experiment [1] (FIG. 10b), the “astrocytes (GFAP) in brain cortex vs NP-C mice” value is listed as “remarkable decrease”. Also, in experiment [1] (FIGS. 10c and d), the “exercise capacity (Rota-rod, Beam test) vs NP-C mice” value is “improved”. In addition, in experiment [2], the “expression level of LxA4 in neurons of APP/PS1 mice” value is on record as “recovered” and the “expression level of RvE1 in neurons of APP/PS1 mice” value is on record as “recovered”. Besides, in experiment [3], the “COX2 acetylation compared with the sample of SphK1, acetyl-CoA and sphingosine” value was “more acetylation”.
